Source: patent publication US20260241046A1, “PROSTATE-SPECIFIC MEMBRANE ANTIGEN RECEPTOR-TARGETING RADIOPHARMACEUTICALS AND USES THEREOF” (Nuclidium AG, priority 2024, published 2026)

What was measured:
[1] = Lipophilicity log D (pH 7.4), shake-flask method; assay type: physicochemical; conditions: 1-octanol / PBS pH 7.4
Protocol: The lipophilic/hydrophilic character of [^61Cu]Cu-NODAGA-PSMA I&T was assessed by the determination of the distribution coefficient (D), expressed as log D at physiological pH (log D (pH 7.4)), between an aqueous and an organic phase following the “shake-flask” method. [^61Cu]Cu-NODAGA-PSMA I&T (1 μM) was added to a 50:50 pre-saturated mixture solution of 1-octanol and phosphate-buffered saline (PBS pH 7.4). The mixture was vortexed for 30 min and then centrifuged at 3000 rpm to achieve phase separation. Aliquots from each phase were collected and measured in a gamma counter. The distribution coefficient was calculated as the average logarithmic values of the ratio between the radioactivity in the organic and the PBS phase.

[2] = molecular target: T1, PSMA-positive malignant lesions (Homo sapiens, UniProt Q04609); assay: Human clinical trial, PET/CT comparison between Pylarify and [^61Cu]Cu-NODAGA-PSMA I&T; assay type: in vivo
T1 construct: from tissue; host or cells: prostate cancer lesions (bone and nodal metastases, prostate) of eight trial subjects
T1 sequence (Q04609 whole entry): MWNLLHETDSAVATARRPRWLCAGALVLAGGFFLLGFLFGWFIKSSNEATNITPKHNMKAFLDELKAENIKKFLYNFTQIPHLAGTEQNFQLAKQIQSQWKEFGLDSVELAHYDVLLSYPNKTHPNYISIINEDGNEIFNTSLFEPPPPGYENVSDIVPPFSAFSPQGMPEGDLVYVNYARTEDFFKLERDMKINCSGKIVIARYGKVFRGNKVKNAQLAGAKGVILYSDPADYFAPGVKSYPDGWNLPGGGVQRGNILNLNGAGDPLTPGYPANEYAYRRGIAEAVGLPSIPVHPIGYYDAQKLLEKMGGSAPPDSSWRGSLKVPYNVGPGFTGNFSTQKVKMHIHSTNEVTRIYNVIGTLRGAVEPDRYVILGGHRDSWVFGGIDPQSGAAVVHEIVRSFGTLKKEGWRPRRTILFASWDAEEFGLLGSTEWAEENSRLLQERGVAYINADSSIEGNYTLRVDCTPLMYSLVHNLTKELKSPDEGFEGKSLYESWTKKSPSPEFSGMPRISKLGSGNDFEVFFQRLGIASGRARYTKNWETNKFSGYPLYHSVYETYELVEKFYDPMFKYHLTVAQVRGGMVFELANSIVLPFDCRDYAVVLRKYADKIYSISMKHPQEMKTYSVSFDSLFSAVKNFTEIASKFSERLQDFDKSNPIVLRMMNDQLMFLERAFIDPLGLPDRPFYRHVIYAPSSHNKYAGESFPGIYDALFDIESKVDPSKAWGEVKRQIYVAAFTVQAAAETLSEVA
Protocol: This is a phase I, single center, non-randomized trial with 6-10 subjects. Each subject will have biopsy-proven prostate cancer visualized on FDA-approved ^18F-piflufolastat PET/CT performed within 3 weeks of trial recruitment. Each subject will receive a single administration of [^61Cu]Cu-NODAGA-PSMA I&T, followed by PET/CT imaging. Safety of [^61Cu]Cu-NODAGA-PSMA I&T will be evaluated by monitoring for unlikely adverse effects.
Subjects will undergo administration of 10 mL of 100-300 MBq (2.7-8.1 mCi) [^61Cu]Cu-NODAGA-PSMA I&T composition intravenously described in Table 20, followed by PET/CT imaging 60 (+/−10) minutes post radiotracer administration.
• Perform and record vital signs. • Place IV catheter. • Obtain blood for whole blood and plasma radioactivity counts prior to radiotracer administration and at 3-5 time points post radiotracer administration, from the following time ranges • a. 15 minutes (+/−10 minutes) • b. 30 minutes (+/−10 minutes) • c. 60 minutes (+/−15 minutes) • d. 120-240 minutes • e. 240-420 minutes • Administer 100-300 MBq ([…]) of [^61Cu]Cu-NODAGA-PSMA I&T composition intravenously. • Perform and record vital signs and assess for adverse reactions 30-60 minutes and 120-240 minutes post radiotracer administration. • Perform PET/CT imaging at 2 or 3 time points post radiotracer administration, from the following time ranges. • a. 60 minutes (+/−15 minutes) • b. 120-240 minutes • c. 240-420 minutes • Perform and record vital signs and assess for adverse reactions 120 (+/−10 minutes) post radiotracer administration. Visit 3—Day after Phone Call • Record any adverse reactions.
For the secondary objective of effectiveness, the number of suspected PSMA-positive malignant lesions will be calculated in both the standard-of-care ^18F-Piflufolastat PET/CT and the experimental [^61Cu]Cu-NODAGA-PSMA I&T PET/CT. The percentage of patients with any suspected PSMA-positive malignant lesions will be determined for each radiotracer. To assess whether the distribution of the number of lesions was higher with ^18F-Piflufolastat PET/CT or [^61Cu]Cu-NODAGA-PSMA I&T, 1-sided Wilcoxon […] tests for paired data will be performed. To account for the small sample size, results with a P value of less than 0.1 will be considered statistically significant.

O=C([O-])CN1CCN(CC(=O)[O-])CCN([C@H](CCC(=O)N[C@H](Cc2ccc(O)c(I)c2)C(=O)N[C@H](Cc2ccccc2)C(=O)N[C@H](CCCCNC(=O)CCCCCCC(=O)NCCCC[C@H](NC(=O)N[C@@H](CCC(=O)O)C(=O)O)C(=O)O)C(=O)O)C(=O)O)CC1.[61Cu+2] [[^61Cu]Cu-NODAGA-PSMA I&T]
log D (pH 7.4) [1]: −2.95±0.08
Concordance ([2]; Subject 1): 100%
% difference from Pylarify results at 1 hour ([2]; Subject 1, 1 hour): (12%)
New Lesions Detected with [^61Cu]Cu-NODAGA-PSMA I&T ([2]; Subject 1, 1 hour): 5
Tumor-to-Background Ratio with [^61Cu]Cu-NODAGA-PSMA I&T ([2]; Subject 1, 1 hour): 59.9
% difference from Pylarify results at 1 hour ([2]; Subject 1, 2 hour): (115%)
New Lesions Detected with [^61Cu]Cu-NODAGA-PSMA I&T ([2]; Subject 1, 2 hour): 7
Tumor-to-Background Ratio with [^61Cu]Cu-NODAGA-PSMA I&T ([2]; Subject 1, 2 hour): 114.5
% difference from Pylarify results at 1 hour ([2]; Subject 1, 4 hour): (154%)
New Lesions Detected with [^61Cu]Cu-NODAGA-PSMA I&T ([2]; Subject 1, 4 hour): 8
Tumor-to-Background Ratio with [^61Cu]Cu-NODAGA-PSMA I&T ([2]; Subject 1, 4 hour): 135.5
Concordance ([2]; Subject 2): 100%
% difference from Pylarify results at 1 hour ([2]; Subject 2, 1 hour): (37%)
New Lesions Detected with [^61Cu]Cu-NODAGA-PSMA I&T ([2]; Subject 2, 1 hour): 0
Tumor-to-Background Ratio with [^61Cu]Cu-NODAGA-PSMA I&T ([2]; Subject 2, 1 hour): 5.3
% difference from Pylarify results at 1 hour ([2]; Subject 2, 2 hour): (−13%)
New Lesions Detected with [^61Cu]Cu-NODAGA-PSMA I&T ([2]; Subject 2, 2 hour): 0
Tumor-to-Background Ratio with [^61Cu]Cu-NODAGA-PSMA I&T ([2]; Subject 2, 2 hour): 3.4
% difference from Pylarify results at 1 hour ([2]; Subject 2, 4 hour): (−43%)
New Lesions Detected with [^61Cu]Cu-NODAGA-PSMA I&T ([2]; Subject 2, 4 hour): 0
Tumor-to-Background Ratio with [^61Cu]Cu-NODAGA-PSMA I&T ([2]; Subject 2, 4 hour): 2.2
Concordance ([2]; Subject 3): 100%
% difference from Pylarify results at 1 hour ([2]; Subject 3, 1 hour): (52%)
New Lesions Detected with [^61Cu]Cu-NODAGA-PSMA I&T ([2]; Subject 3, 1 hour): 1
Tumor-to-Background Ratio with [^61Cu]Cu-NODAGA-PSMA I&T ([2]; Subject 3, 1 hour): 9.3
% difference from Pylarify results at 1 hour ([2]; Subject 3, 2 hour): (9%)
New Lesions Detected with [^61Cu]Cu-NODAGA-PSMA I&T ([2]; Subject 3, 2 hour): 1
Tumor-to-Background Ratio with [^61Cu]Cu-NODAGA-PSMA I&T ([2]; Subject 3, 2 hour): 6.7
% difference from Pylarify results at 1 hour ([2]; Subject 3, 4 hour): (274%)
New Lesions Detected with [^61Cu]Cu-NODAGA-PSMA I&T ([2]; Subject 3, 4 hour): 3
Tumor-to-Background Ratio with [^61Cu]Cu-NODAGA-PSMA I&T ([2]; Subject 3, 4 hour): 23.0
Concordance ([2]; Subject 4): 100%
% difference from Pylarify results at 1 hour ([2]; Subject 4, 1 hour): (64%)
New Lesions Detected with [^61Cu]Cu-NODAGA-PSMA I&T ([2]; Subject 4, 1 hour): 0
Tumor-to-Background Ratio with [^61Cu]Cu-NODAGA-PSMA I&T ([2]; Subject 4, 1 hour): 126.2
% difference from Pylarify results at 1 hour ([2]; Subject 4, 2 hour): (110%)
New Lesions Detected with [^61Cu]Cu-NODAGA-PSMA I&T ([2]; Subject 4, 2 hour): 2
Tumor-to-Background Ratio with [^61Cu]Cu-NODAGA-PSMA I&T ([2]; Subject 4, 2 hour): 161.4
% difference from Pylarify results at 1 hour ([2]; Subject 4, 4 hour): (98%)
New Lesions Detected with [^61Cu]Cu-NODAGA-PSMA I&T ([2]; Subject 4, 4 hour): 10
Tumor-to-Background Ratio with [^61Cu]Cu-NODAGA-PSMA I&T ([2]; Subject 4, 4 hour): 152.8
Concordance ([2]; Subject 5): 100%
% difference from Pylarify results at 1 hour ([2]; Subject 5, 1 hour): (98%)
New Lesions Detected with [^61Cu]Cu-NODAGA-PSMA I&T ([2]; Subject 5, 1 hour): 0
Tumor-to-Background Ratio with [^61Cu]Cu-NODAGA-PSMA I&T ([2]; Subject 5, 1 hour): 53.3
% difference from Pylarify results at 1 hour ([2]; Subject 5, 2 hour): (154%)
New Lesions Detected with [^61Cu]Cu-NODAGA-PSMA I&T ([2]; Subject 5, 2 hour): 0
Tumor-to-Background Ratio with [^61Cu]Cu-NODAGA-PSMA I&T ([2]; Subject 5, 2 hour): 68.3
% difference from Pylarify results at 1 hour ([2]; Subject 5, 4 hour): (160%)
New Lesions Detected with [^61Cu]Cu-NODAGA-PSMA I&T ([2]; Subject 5, 4 hour): 0
Tumor-to-Background Ratio with [^61Cu]Cu-NODAGA-PSMA I&T ([2]; Subject 5, 4 hour): 70.0
Concordance ([2]; Subject 6): 100%
% difference from Pylarify results at 1 hour ([2]; Subject 6, 1 hour): (60%)
New Lesions Detected with [^61Cu]Cu-NODAGA-PSMA I&T ([2]; Subject 6, 1 hour): 0
Tumor-to-Background Ratio with [^61Cu]Cu-NODAGA-PSMA I&T ([2]; Subject 6, 1 hour): 11.3
% difference from Pylarify results at 1 hour ([2]; Subject 6, 2 hour): (126%)
New Lesions Detected with [^61Cu]Cu-NODAGA-PSMA I&T ([2]; Subject 6, 2 hour): 0
Tumor-to-Background Ratio with [^61Cu]Cu-NODAGA-PSMA I&T ([2]; Subject 6, 2 hour): 16.0
% difference from Pylarify results at 1 hour ([2]; Subject 6, 4 hour): (230%)
New Lesions Detected with [^61Cu]Cu-NODAGA-PSMA I&T ([2]; Subject 6, 4 hour): 0
Tumor-to-Background Ratio with [^61Cu]Cu-NODAGA-PSMA I&T ([2]; Subject 6, 4 hour): 23.3
Concordance ([2]; Subject 7): 100%
% difference from Pylarify results at 1 hour ([2]; Subject 7, 1 hour): (45%)
New Lesions Detected with [^61Cu]Cu-NODAGA-PSMA I&T ([2]; Subject 7, 1 hour): 3
Tumor-to-Background Ratio with [^61Cu]Cu-NODAGA-PSMA I&T ([2]; Subject 7, 1 hour): 5.6
% difference from Pylarify results at 1 hour ([2]; Subject 7, 2 hour): (70%)
New Lesions Detected with [^61Cu]Cu-NODAGA-PSMA I&T ([2]; Subject 7, 2 hour): 3
Tumor-to-Background Ratio with [^61Cu]Cu-NODAGA-PSMA I&T ([2]; Subject 7, 2 hour): 6.6
% difference from Pylarify results at 1 hour ([2]; Subject 7, 4 hour): (287%)
New Lesions Detected with [^61Cu]Cu-NODAGA-PSMA I&T ([2]; Subject 7, 4 hour): 5
Tumor-to-Background Ratio with [^61Cu]Cu-NODAGA-PSMA I&T ([2]; Subject 7, 4 hour): 15.0
Concordance ([2]; Subject 8): 100%
% difference from Pylarify results at 1 hour ([2]; Subject 8, 1 hour): (−10%)
New Lesions Detected with [^61Cu]Cu-NODAGA-PSMA I&T ([2]; Subject 8, 1 hour): 0
Tumor-to-Background Ratio with [^61Cu]Cu-NODAGA-PSMA I&T ([2]; Subject 8, 1 hour): 24.2
% difference from Pylarify results at 1 hour ([2]; Subject 8, 2 hour): (29%)
New Lesions Detected with [^61Cu]Cu-NODAGA-PSMA I&T ([2]; Subject 8, 2 hour): 0
Tumor-to-Background Ratio with [^61Cu]Cu-NODAGA-PSMA I&T ([2]; Subject 8, 2 hour): 34.5
% difference from Pylarify results at 1 hour ([2]; Subject 8, 4 hour): (123%)
New Lesions Detected with [^61Cu]Cu-NODAGA-PSMA I&T ([2]; Subject 8, 4 hour): 0
Tumor-to-Background Ratio with [^61Cu]Cu-NODAGA-PSMA I&T ([2]; Subject 8, 4 hour): 59.7
metastases visualized compared with Pylarify PET/CT ([2]; Subject #1): More osseous metastases were visualized
metastases visualized compared with Pylarify PET/CT ([2]; Subject #2): Same number of metastases were observed
pelvic nodal metastases seen on PET/CT ([2]; Subject #3, 4 hours): 5
metastases visualized compared with Pylarify PET/CT ([2]; Subject #4): More osseous metastases were observed
metastases visualized compared with Pylarify PET/CT ([2]; Subject #5): Equal number of osseous metastases were observed
metastases visualized compared with Pylarify PET/CT ([2]; Subject #6): One avid 0.4 cm left pelvic sidewall lymph node seen on both
metastases visualized compared with Pylarify PET/CT ([2]; Subject #7): More osseous metastases were detected
metastases visualized compared with Pylarify PET/CT ([2]; Subject #8): Solitary avid osseous metastasis were observed in both exams
detection rate of metastatic lesions compared with Pylarify ([2]; eight subjects): higher detection rate of metastatic lesions
higher tumor-to-background ratio than Pylarify, on average ([2]; eight subjects): 90%
